Measured values taken from PubChem BioAssay (NCI).
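96-well plates; 48 h exposure; 5 concentrations. Endpoints by linear interpolation between flanking doses. Not reached: highest tested concentration assigned. Here, GI50 denotes the concentration required for 50% inhibition of growth. TGI denotes the concentration required for complete inhibition of growth.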

Assays:
Experiment in all cases: NCI-60 cell line screen, 48 h
KM12 colon = test system: KM12 colon
A549 NSCLC = test system: A549 NSCLC
T-47D breast = test system: T-47D breast
DU-145 prostate = test system: DU-145 prostate
UO-31 renal = test system: UO-31 renal
HT29 colon = test system: HT29 colon
UACC-62 melanoma = test system: UACC-62 melanoma
SF-295 CNS = test system: SF-295 CNS
NCI-H522 lung = test system: NCI-H522 lung
COLO 205 colon = test system: COLO 205 colon
NCI-H460 lung = test system: NCI-H460 lung
SW-620 colon = test system: SW-620 colon
RPMI-8226 leukemia = test system: RPMI-8226 leukemia
HL-60(TB) leukemia = test system: HL-60(TB) leukemia
SNB-75 CNS = test system: SNB-75 CNS
SK-MEL-5 melanoma = test system: SK-MEL-5 melanoma
RXF 393 renal = test system: RXF 393 renal
SNB-19 CNS = test system: SNB-19 CNS
NCI-H226 lung = test system: NCI-H226 lung
SR leukemia = test system: SR leukemia
MDA-MB-435 = test system: MDA-MB-435
MDA-MB-231 breast = test system: MDA-MB-231 breast
HS 578T breast = test system: HS 578T breast
SF-268 CNS = test system: SF-268 CNS
OVCAR-4 ovarian = test system: OVCAR-4 ovarian
MALME-3M melanoma = test system: MALME-3M melanoma
SK-MEL-28 melanoma = test system: SK-MEL-28 melanoma
HOP-92 NSCLC = test system: HOP-92 NSCLC
OVCAR-3 ovarian = test system: OVCAR-3 ovarian
NCI-H23 lung = test system: NCI-H23 lung
IGROV1 ovarian = test system: IGROV1 ovarian
HCT-116 colon = test system: HCT-116 colon
786-0 renal = test system: 786-0 renal
EKVX NSCLC = test system: EKVX NSCLC
ACHN renal = test system: ACHN renal
HCC-2998 colon = test system: HCC-2998 colon
HCT-15 colon = test system: HCT-15 colon
BT-549 breast = test system: BT-549 breast
LOX IMVI melanoma = test system: LOX IMVI melanoma
PC-3 prostate = test system: PC-3 prostate
UACC-257 melanoma = test system: UACC-257 melanoma
SF-539 CNS = test system: SF-539 CNS
NCI/ADR-RES ovarian = test system: NCI/ADR-RES ovarian
HOP-62 NSCLC = test system: HOP-62 NSCLC
TK-10 renal = test system: TK-10 renal
MOLT-4 leukemia = test system: MOLT-4 leukemia
OVCAR-5 ovarian = test system: OVCAR-5 ovarian
U251 CNS = test system: U251 CNS
SK-OV-3 ovarian = test system: SK-OV-3 ovarian
A498 renal = test system: A498 renal
MCF7 breast = test system: MCF7 breast
SK-MEL-2 melanoma = test system: SK-MEL-2 melanoma
OVCAR-8 ovarian = test system: OVCAR-8 ovarian
M14 melanoma = test system: M14 melanoma
CCRF-CEM leukemia = test system: CCRF-CEM leukemia
SN12C renal = test system: SN12C renal

COc1cc2c(cc1OC)-c1ccc3cc4c(cc3c1N(CCCn1ccnc1)C2)OCO4
GI50 (KM12 colon): 6.05 µM | TGI (KM12 colon): 31.8 µM | GI50 (A549 NSCLC): 8.39 µM | TGI (A549 NSCLC): 32.1 µM | GI50 (T-47D breast): 0.358 µM | TGI (T-47D breast): 4.27 µM | GI50 (DU-145 prostate): 3.21 µM | TGI (DU-145 prostate): 34.5 µM | GI50 (UO-31 renal): 16.7 µM | TGI (UO-31 renal): 60.5 µM | GI50 (HT29 colon): 3.22 µM | TGI (HT29 colon): 30.7 µM | GI50 (UACC-62 melanoma): 0.67 µM | TGI (UACC-62 melanoma): 2.72 µM | GI50 (SF-295 CNS): 2.8 µM | TGI (SF-295 CNS): 75.6 µM | GI50 (NCI-H522 lung): 0.565 µM | TGI (NCI-H522 lung): 3.35 µM | GI50 (COLO 205 colon): 1.49 µM | TGI (COLO 205 colon): 6.12 µM | GI50 (NCI-H460 lung): 0.527 µM | TGI (NCI-H460 lung): 11.3 µM | GI50 (SW-620 colon): 1.58 µM | TGI (SW-620 colon): 21 µM | GI50 (RPMI-8226 leukemia): 1.31 µM | TGI (RPMI-8226 leukemia): 5.62 µM | GI50 (HL-60(TB) leukemia): 1.92 µM | TGI (HL-60(TB) leukemia): 5.71 µM | GI50 (SNB-75 CNS): 1.75 µM | TGI (SNB-75 CNS): 19.6 µM | GI50 (SK-MEL-5 melanoma): 2.22 µM | TGI (SK-MEL-5 melanoma): 10.2 µM | GI50 (RXF 393 renal): 3.43 µM | TGI (RXF 393 renal): 16.3 µM | GI50 (SNB-19 CNS): 0.79 µM | TGI (SNB-19 CNS): 12.7 µM | GI50 (NCI-H226 lung): 5.52 µM | TGI (NCI-H226 lung): 24.8 µM | GI50 (SR leukemia): 0.579 µM | TGI (SR leukemia): > 100 µM | GI50 (MDA-MB-435): 4.35 µM | TGI (MDA-MB-435): 16.8 µM | GI50 (MDA-MB-231 breast): 3.34 µM | TGI (MDA-MB-231 breast): 18.8 µM | GI50 (HS 578T breast): 5.75 µM | TGI (HS 578T breast): 40 µM | GI50 (SF-268 CNS): 0.514 µM | TGI (SF-268 CNS): 53.4 µM | GI50 (OVCAR-4 ovarian): 4.81 µM | TGI (OVCAR-4 ovarian): 31.9 µM | GI50 (MALME-3M melanoma): 2.68 µM | TGI (MALME-3M melanoma): 10.7 µM | GI50 (SK-MEL-28 melanoma): 3.74 µM | TGI (SK-MEL-28 melanoma): 17.7 µM | GI50 (HOP-92 NSCLC): 3.58 µM | TGI (HOP-92 NSCLC): 32.5 µM | GI50 (OVCAR-3 ovarian): 2.26 µM | TGI (OVCAR-3 ovarian): 5.97 µM | GI50 (NCI-H23 lung): 2.23 µM | TGI (NCI-H23 lung): 21.3 µM | GI50 (IGROV1 ovarian): 3.61 µM | TGI (IGROV1 ovarian): 29.9 µM | GI50 (HCT-116 colon): 2.93 µM | TGI (HCT-116 colon): 16.2 µM | GI50 (786-0 renal): 6.04 µM | TGI (786-0 renal): 32.8 µM | GI50 (EKVX NSCLC): 31.9 µM | TGI (EKVX NSCLC): > 100 µM | GI50 (ACHN renal): 10.1 µM | TGI (ACHN renal): 65.9 µM | GI50 (HCC-2998 colon): 10.9 µM | TGI (HCC-2998 colon): 24.4 µM | GI50 (HCT-15 colon): 58.3 µM | TGI (HCT-15 colon): > 100 µM | GI50 (BT-549 breast): 3.78 µM | TGI (BT-549 breast): 17.9 µM | GI50 (LOX IMVI melanoma): 1.62 µM | TGI (LOX IMVI melanoma): 4.7 µM | GI50 (PC-3 prostate): 4.18 µM | TGI (PC-3 prostate): 36.7 µM | GI50 (UACC-257 melanoma): 5.9 µM | TGI (UACC-257 melanoma): 23.3 µM | GI50 (SF-539 CNS): 2.11 µM | TGI (SF-539 CNS): 7.36 µM | GI50 (NCI/ADR-RES ovarian): > 100 µM | TGI (NCI/ADR-RES ovarian): > 100 µM | GI50 (HOP-62 NSCLC): 2.03 µM | TGI (HOP-62 NSCLC): 13.6 µM | GI50 (TK-10 renal): 25.2 µM | TGI (TK-10 renal): 60.5 µM | GI50 (MOLT-4 leukemia): 0.467 µM | TGI (MOLT-4 leukemia): > 100 µM | GI50 (OVCAR-5 ovarian): 16.4 µM | TGI (OVCAR-5 ovarian): 69.9 µM | GI50 (U251 CNS): 1.02 µM | TGI (U251 CNS): 3.97 µM | GI50 (SK-OV-3 ovarian): 3.84 µM | TGI (SK-OV-3 ovarian): 26.8 µM | GI50 (A498 renal): 7.66 µM | TGI (A498 renal): 27.1 µM | GI50 (MCF7 breast): 0.364 µM | TGI (MCF7 breast): 74.1 µM | GI50 (SK-MEL-2 melanoma): 3.02 µM | TGI (SK-MEL-2 melanoma): 8.73 µM | GI50 (OVCAR-8 ovarian): 5.49 µM | TGI (OVCAR-8 ovarian): 43.6 µM | GI50 (M14 melanoma): 3.5 µM | TGI (M14 melanoma): 15.6 µM | GI50 (CCRF-CEM leukemia): 0.62 µM | TGI (CCRF-CEM leukemia): 21.4 µM | GI50 (SN12C renal): 0.382 µM | TGI (SN12C renal): 16.9 µM
